Data from PubChem BioAssay (NCI).
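Where inhibition never reached the appropriate level, the endpoint shown equals the highest concentration tested. Otherwise, values were interpolated linearly from a five-concentration, 48-hour dose response in 96-well plates. GI50: concentration for 50% inhibition of growth. TGI: total growth inhibition.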

Assays:
Test in all cases: DTP human tumour cell line panel, 48 h
[1] = system: SK-MEL-2 melanoma
[2] = system: PC-3 prostate
[3] = system: SK-OV-3 ovarian
[4] = system: ACHN renal
[5] = system: SK-MEL-28 melanoma
[6] = system: HS 578T breast
[7] = system: EKVX NSCLC
[8] = system: UO-31 renal
[9] = system: HCT-15 colon
[10] = system: MDA-MB-468 breast
[11] = system: MDA-MB-231 breast
[12] = system: DU-145 prostate
[13] = system: HOP-62 NSCLC
[14] = system: HOP-92 NSCLC
[15] = system: UACC-257 melanoma
[16] = system: SK-MEL-5 melanoma
[17] = system: A549 NSCLC
[18] = system: HCC-2998 colon
[19] = system: OVCAR-5 ovarian
[20] = system: IGROV1 ovarian
[21] = system: SR leukemia
[22] = system: K-562 leukemia
[23] = system: LOX IMVI melanoma
[24] = system: SW-620 colon
[25] = system: SF-539 CNS
[26] = system: MCF7 breast
[27] = system: KM12 colon
[28] = system: HT29 colon
[29] = system: MDA-MB-435

Q: `Cc1cc(C2(c3cc(C)c(OCC(O)CNc4c(C)n(C)n(-c5ccccc5)c4=O)cc3C(C)C)OC(=O)c3ccccc32)c(C(C)C)cc1OCC(O)CNc1c(C)n(C)n(-c2ccccc2)c1=O` (stereo not drawn) was tested. Which GI50 [1] did it give?
A: 17.5 µM

Q: What about the TGI [1] of the same compound?
A: 40.8 µM

Q: And the GI50 [2]?
A: 5.72 µM

Q: What about the TGI [2] of the same compound?
A: > 100 µM

Q: What about the GI50 [3] of the same compound?
A: 49.2 µM

Q: And the TGI [3]?
A: > 100 µM

Q: And the GI50 [4]?
A: 23.6 µM

Q: What about the TGI [4] of the same compound?
A: > 100 µM

Q: What about the GI50 [5] of the same compound?
A: 23.2 µM

Q: And the TGI [5]?
A: 92.9 µM

Q: What about the GI50 [6] of the same compound?
A: 14.2 µM

Q: What about the TGI [6] of the same compound?
A: > 100 µM

Q: And the GI50 [7]?
A: 14.7 µM

Q: What about the TGI [7] of the same compound?
A: > 100 µM

Q: What about the GI50 [8] of the same compound?
A: 19.9 µM

Q: What about the TGI [8] of the same compound?
A: > 100 µM

Q: What about the GI50 [9] of the same compound?
A: 17.1 µM

Q: What about the TGI [9] of the same compound?
A: 67.9 µM

Q: What about the GI50 [10] of the same compound?
A: 12.1 µM

Q: And the TGI [10]?
A: 44.5 µM

Q: What about the GI50 [11] of the same compound?
A: 10.1 µM

Q: What about the TGI [11] of the same compound?
A: 27.2 µM

Q: What about the GI50 [12] of the same compound?
A: 34 µM

Q: And the TGI [12]?
A: > 100 µM

Q: What about the GI50 [13] of the same compound?
A: 36.5 µM

Q: And the TGI [13]?
A: > 100 µM

Q: And the GI50 [14]?
A: 4.49 µM

Q: What about the TGI [14] of the same compound?
A: 49.8 µM

Q: What about the GI50 [15] of the same compound?
A: 24.1 µM

Q: What about the TGI [15] of the same compound?
A: > 100 µM

Q: And the GI50 [16]?
A: 13.2 µM

Q: And the TGI [16]?
A: 26.7 µM

Q: And the GI50 [17]?
A: 23.1 µM

Q: And the TGI [17]?
A: > 100 µM

Q: And the GI50 [18]?
A: 17.1 µM

Q: What about the TGI [18] of the same compound?
A: 49.6 µM

Q: And the GI50 [19]?
A: 17.7 µM

Q: And the TGI [19]?
A: 56.3 µM

Q: What about the GI50 [20] of the same compound?
A: 29 µM

Q: What about the TGI [20] of the same compound?
A: > 100 µM

Q: What about the GI50 [21] of the same compound?
A: 20.9 µM

Q: What about the TGI [21] of the same compound?
A: > 100 µM

Q: What about the GI50 [22] of the same compound?
A: 14.4 µM

Q: And the TGI [22]?
A: > 100 µM

Q: What about the GI50 [23] of the same compound?
A: 14.4 µM

Q: What about the TGI [23] of the same compound?
A: 30.3 µM

Q: And the GI50 [24]?
A: 28.2 µM

Q: And the TGI [24]?
A: > 100 µM

Q: What about the GI50 [25] of the same compound?
A: 18.6 µM

Q: What about the TGI [25] of the same compound?
A: 52.9 µM

Q: And the GI50 [26]?
A: 14 µM

Q: What about the TGI [26] of the same compound?
A: 39.6 µM

Q: And the GI50 [27]?
A: 25.8 µM

Q: And the TGI [27]?
A: > 100 µM

Q: And the GI50 [28]?
A: 26.7 µM

Q: What about the TGI [28] of the same compound?
A: > 100 µM

Q: And the GI50 [29]?
A: 14.7 µM

Q: And the TGI [29]?
A: 38.3 µM
